Laboratory results as given in EP0983764A1, “PREVENTIVES FOR ISCHEMIC HEART DISEASES” (TAISHO PHARMACEUTICAL CO. LTD, priority 1997, dated 1998).
Like-named read-outs stand apart in the source and are kept apart here. Marks after values point to notes of the source that are not given here.

Columns and labels:
[1] = test system: hereditary hyperlipemic WHHL rabbits; experiment: Antiarteriosclerotic activity in hereditary hyperlipemic WHHL rabbits; type: in vivo; details: for Total cholesterol in the arterial wall: 18 months, aorta; for Total cholesterol in the arterial wall / Total blood cholesterol / Intimal cholesterol deposition / Intimal surface elastin/collagen / Intimal collagen / Intimal elastin / Medium Elastin: Mean ± S.E.; for Total blood cholesterol: in feed over 18 months, at autopsy; for Intimal cholesterol deposition: plaque components in aortic arteriosclerosis; for Intimal cholesterol deposition / Intimal collagen / Intimal elastin / Medium Elastin: score, Grade 0-4; for Intimal surface elastin/collagen: ratio
From the text: The compound of the invention was continuously administered to rabbits of 2 months with hereditary hyperlipemia (WHHL rabbits, available from Kitayama RABES K.K.) over 18 months and then the rabbits were autopsied.
A portion of the aorta was fixed with 10% neutral buffered formalin and then embedded in paraffin or freeze-embedded to prepare a slice of the arterial tissue. The slice was stained with Hematoxylin and Eosin (HE), Elastic Van Gieson (EVG), Azan-Mallory, and Oil Red O. A positive rate was assessed under microscopic observation in terms of 5 scores (Grade; 0: No changes, 1: Minimum, 2: Mild, 3: Moderate, and 4: Severe) to measure changes in components in the arteriosclerotic lesion. For another portion of the aorta, cholesterol was extracted with a solution of chloroform methanol (2:1) and a total cholesterol level in the arterial wall was assayed according to an enzyme method (Cholesterol CII-Test WAKO, Wako Pure Chemical Industries, Ltd.)
A total blood cholesterol level value at the autopsy was measured according to an enzyme method (Autosera CHO-2, Daiichi Kagaku Yakuhin K.K.) using an autoanalyzer (Hitachi 7150 type).
The drug was mixed into a feed for rabbits RC-4 (Oriental Kobo K.K.) at the concentrations of 0.005% and of 0.05%, and the resulting feed was given daily between 9:00 a.m. and 11:30 a.m. while the feed was restricted to 20 g/kg of body weight.

[2] = test system: cholesterol-loading rabbits; experiment: Antiarteriosclerotic activity in a model for the treatment of arteriosclerosis in cholesterol-loading rabbits; type: in vivo, rabbits (NZW strain male); details: for inhibition at 3 mg/kg: Oryctolagus cuniculus
Protocol: As test animals were used a group of 10 rabbits previously fed with a 1% cholesterol-enriched feed to develop atherosclerosis (of 5 months, NZW strain male; available from Kitayama RABES K.K.)
A group of rabbits with arteriosclerosis were fed with a normal feed for rabbits RC-4 (available from Oriental Kobo K-K.) for 3 months and then adopted as a control group, while the compound of the invention was orally administered to a medicated group at 3 mg/kg once per day during this period.
After blood collection, the common carotid artery and the aorta were excised and a certain site thereof was fixed with 10% neutral buffered formalin to prepare a slice of the arterial tissue. Elastin elastic fiber-stained preparations were prepared by Elastic Van Gieson (EVG) staining, fat-stained preparations were prepared by Oil Red O staining and smooth muscle-stained preparations were prepared by anti-human α-actin antibody 1A4 staining.
A degree of intimal elastin fibrogenesis and a degree of medium lipid deposition were assessed in terms of 5 scores on elastin-positve and lipid staining-positive intensities (Grade; 0: No changes, 1: Minimum, 2: Mild, 3: Moderate, and 4: Severe). Areas of the intima (I) and of the medium (M) were measured by means of an image analysis system (Adobe Photoshop, Unitimage for the Apple Macintosh) and a ratio of both values (I/M) was calculated.
An elastin density of the fibrous cap in the intimal surface was calculated in terms of a ratio of the elastin-positive area to a given area of the intimal surface. A ratio of the α-actin-positive area to the intimal surface area at a similar site was defined as a smooth muscle density. Cholesterol was extracted from a portion of the excised aorta with a solution of chloroform : methanol (2:1) and was assayed according to an enzyme method (Cholesterol CII-Test WAKO, Free Cholesterol C-TEST WAKO, Wako Pure Chemical Industries, Ltd.)
(§1) A total blood cholesterol level was measured according to an enzyme method (Autosera CHO-2, Daiichi Kagaku Yakuhin K.K.) using an autoanalyzer (Hitachi 7150 type).

[3] = test system: high fat-loading hamsters; experiment: Antiarteriosclerotic activity in a model for the treatment of arteriosclerosis in high fat-loading hamsters; type: in vivo, male golden hamsters; details: for Degree of lipid deposition on the arterial wall: 10 weeks, aortic arch, Oil Red O; for Degree of lipid deposition on the arterial wall / Total blood cholesterol: Means ± S.E. (n=5); for Total blood cholesterol: in high fat diet for 10 weeks
From the text: As test animals were used a group of 5 male golden hamsters of 6 weeks (available from Nihon SLC K.K.) Hamsters were fed with the following high fat diet for 10 weeks to prepare a model for arteriosclerosis.
During this period, the compound of the invention was continuously administered to a medicated group, simultaneously with feeding.
After blood collection, the aortic arch was excised and the adventitia was completely stripped off under microscopic observation. The tissue after fixed with 10% neutral buffered formalin was fat-stained with an Oil Red O solution and enclosed in a glycerol-gelatin solution on a slide glass to prepare a tissue preparation.
An area of the fat-stained site (µm^2) and an area of the artery (mm^2) were measured by means of an image analysis system (Adobe Photoshop, Unitimage for the Apple Macintosh) and a ratio of both values was calculated to determine a degree of lipid deposition on the arterial wall.
as §1
The drug was given in admixture with a high fat diet at the concentrations of 0.003% and of 0.03%, and a dose was calculated from the amount of feed ingested and the body weight.
Composition of a high fat diet: A feed for rats MF (available from Oriental Kobo K.K.) to which 10% coconut oil and 0.05% cholesterol were supplemented. (Results)

[4] = 3 mg/kg orally once per day, 3 months, aorta
[5] = 3 mg/kg, score, Grade 0: No change to 4: Severe, Mean ± S.E.

With `CCCCCCCCCCCCCCSCC(=O)Nc1c(C(C)C)cccc1C(C)C` [Compound of the invention] as the compound, how does the “Total cholesterol in the arterial wall” value ([1]; 1 mg/kg) read?
Its value is 29.3 ± 4.8 mg/g.

And the Total blood cholesterol ([1]; 1 mg/kg)?
Its Total blood cholesterol is 462 ± 13 mg/dL.

And the Intimal cholesterol deposition ([1]; 1 mg/kg)?
Its Intimal cholesterol deposition is 2.6±0.2.

What about the Intimal surface elastin/collagen ([1]; 1 mg/kg) of the same compound?
The Intimal surface elastin/collagen was 1.26±0.24.

And the Intimal collagen ([1]; 1 mg/kg)?
Its Intimal collagen is 3.0±0.2.

What about the Intimal elastin ([1]; 1 mg/kg) of the same compound?
The Intimal elastin was 1.5±0.2.

And the “Medium Elastin” value ([1]; 1 mg/kg)?
Its value is 0.93±0.20.

What about the “Total cholesterol in the arterial wall” value ([1]; 10 mg/kg) of the same compound?
Its value is 32.2 ± 2.6 mg/g.

And the Total blood cholesterol ([1]; 10 mg/kg)?
Its Total blood cholesterol is 438 ± 20 mg/dL.

What about the Intimal cholesterol deposition ([1]; 10 mg/kg) of the same compound?
The Intimal cholesterol deposition was 2.2±0.1.

What about the Intimal surface elastin/collagen ([1]; 10 mg/kg) of the same compound?
The Intimal surface elastin/collagen was 2.01±0.36.

And the Intimal collagen ([1]; 10 mg/kg)?
The Intimal collagen was 3.0±0.1.

What about the Intimal elastin ([1]; 10 mg/kg) of the same compound?
The Intimal elastin was 1.8±0.2.

And the “Medium Elastin” value ([1]; 10 mg/kg)?
The value was 1.59±0.09.

And the inhibition at 1 mg/kg ([1]; Oryctolagus cuniculus, 1 mg/kg, vs. control group, read-out: Total cholesterol in the arterial wall Inhibition (%))?
Its inhibition at 1 mg/kg is 26.4%.

And the inhibition at 10 mg/kg ([1]; Oryctolagus cuniculus, 10 mg/kg, vs. control group, read-out: Total cholesterol in the arterial wall Inhibition (%))?
The inhibition at 10 mg/kg was 19.1%.

What about the “action on endothelial cells” value ([1]; old WHHL rabbit lesion) of the same compound?
Its value is “compacting endothelial cells”.

And the Total blood cholesterol ([2]; 3 mg/kg orally once per day, 3 months)?
The Total blood cholesterol was 113.4 ± 38.6 mg/dL.

And the “Degree of intimal thickening in the common carotid artery” value ([2]; 3 mg/kg orally once per day, 3 months, I/M = Area of the intima/Area of the medium)?
Its value is 0.45±0.18 I/M.

What about the “Cholesteryl ester in the arterial wall” value [2, 4] of the same compound?
The value was 219.1 ± 18.4 mg/g.

And the “Free cholesterol in the arterial wall” value [2, 4]?
Its value is 119.1 ± 12.2 mg/g.

What about the “Total cholesterol in the arterial wall” value [2, 4] of the same compound?
The value was 338.2 ± 29.9 mg/g.

What about the “Elastin density in the intimal surface” value ([2]; 3 mg/kg, ratio of elastin-positive area to a given area of the intimal surface) of the same compound?
Its value is 151±30.

What about the “Density of smooth muscle in the intimal surface” value ([2]; 3 mg/kg, ratio of α-actin-positive area to the intimal surface area) of the same compound?
The value was 614±35.

What about the “Degree of intimal elastin fibrogenesis” value [2, 5] of the same compound?
The value was 1.7±0.2.

What about the “Degree of medium lipid deposition” value [2, 5] of the same compound?
Its value is 1.2±0.1.

What about the “Degree of intimal elastin fibrogenesis Acceleration (%)” value ([2]; 3 mg/kg, vs. control group) of the same compound?
Its value is 112.5%.

And the “Density of smooth muscle in the intimal surface Acceleration (%)” value ([2]; 3 mg/kg, vs. control group)?
The value was 18.5%.

And the “Elastin density in the intimal surface Acceleration (%)” value ([2]; 3 mg/kg, vs. control group)?
Its value is 37.0%.

And the inhibition at 3 mg/kg ([2]; 3 mg/kg, vs. control group, read-out: Cholesteryl ester in the arterial wall Inhibition (%))?
Its inhibition at 3 mg/kg is 24.1%.

And the inhibition at 3 mg/kg ([2]; 3 mg/kg, vs. control group, read-out: Degree of intimal thickening in the common carotid artery Inhibition (%))?
Its inhibition at 3 mg/kg is 55.9%.

And the inhibition at 3 mg/kg ([2]; 3 mg/kg, vs. control group, read-out: Degree of medium lipid deposition Inhibition (%))?
The inhibition at 3 mg/kg was 47.8%.

And the “regressing a degree of intimal thickening” value ([2]; aortic arch, phase of the complete plaque)?
The value was “no action of regressing a degree of intimal thickening”.

What about the “Degree of lipid deposition on the arterial wall” value ([3]; 1.5 mg/kg) of the same compound?
Its value is 217.5±40.5* µm^2/mm^2.

What about the Total blood cholesterol ([3]; 1.5 mg/kg) of the same compound?
The Total blood cholesterol was 372.0 ± 35.5 mg/dL.

And the “Degree of lipid deposition on the arterial wall” value ([3]; 15 mg/kg)?
Its value is 46.2± 8.6** µm^2/mm^2.

And the Total blood cholesterol ([3]; 15 mg/kg)?
Its Total blood cholesterol is 231.2 ± 4.9 mg/dL.

And the inhibition at 1.5 mg/kg ([3]; Mesocricetus auratus, 1.5 mg/kg, vs. control group, read-out: Degree of lipid deposition on the arterial wall Inhibition (%))?
Its inhibition at 1.5 mg/kg is 67.3%.

What about the inhibition at 15 mg/kg ([3]; Mesocricetus auratus, 15 mg/kg, vs. control group, read-out: Degree of lipid deposition on the arterial wall Inhibition (%)) of the same compound?
Its inhibition at 15 mg/kg is 93.1%.
